# Tested on: potato 5-Lipoxygenase enzyme
# Experiment: Lipoxygenase Inhibitor Screening Assay Kit (Cayman) with potato 5-Lipoxygenase
# Assay type: biochemical
# Settings: positive control at 100 μM
# Experimental: Research grade reagents were used for the rest of the assay preparations. Extracts were dissolved in dimethyl sulfoxide (‘DMSO’) to a final concentration of 50 mg/mL, and then diluted in appropriate buffer for each bioassay to working concentrations.
# This kit measures hydroperoxides produced in the lipoxygenation reaction.
# The extracts were dissolved in methanol to final working concentrations. 5-LOX enzyme, Chromagen, and Linoleic Acid solutions were prepared immediately before use. Nordihydroguaiaretic acid (‘NDGA’) was used as a positive control. 5-LOX enzyme was added to the test samples and controls and incubated for five minutes at room temperature to allow for enzyme/inhibitor interaction. Linoleic acid substrate was added to the plate to initiate the reaction, and the plate was then shaken at room temperature for 10 minutes. Chromagen was added to visualize the hydroperoxides formed during the reaction and the plate was shaken at room temperature for another five minutes. The absorbance was then read at 492 nm. Percent inhibition of the extract concentration was calculated in comparison to the uninhibited control wells.
smiles,measurement,value
"CC(Cc1ccc(O)c(O)c1)C(C)Cc1ccc(O)c(O)c1 (stereo not shown) [NDGA, Nordihydroguaiaretic acid]",5-LOX enzyme inhibition,100%
